# Experimental data published in patent US11957671B2, “Benzodioxane modulators of leukotriene A4 hydrolase (LTA4H) for prevention and treatment of aging-associated diseases” (Alkahest, Inc., priority 2021, dated 2024).
# What was measured:
# [1] = test system: aged mice; assay: LPS model of blood-brain-barrier (BBB) leakiness; format: in vivo, mouse
# Experimental: FIGS. 63-66 report the results of an in vivo model of blood-brain-barrier (BBB) leakiness. Aged mice were treated for 4 weeks with vehicle or Compound 1 followed by an acute high dose of LPS was used to induce BBB breakdown. Sodium fluorescein was injected by tail vein and leakiness of sodium fluorescein into the brain was measured using a fluorescent plate reader. FIG. 63 reports that LPS induced BBB breakdown in young and aged mice. […] (n=69, 57)). FIG. 65 reports the GFAP intensity across a 60 micron (μm) long line drawn across the large descending vessels of the CA1 hippocampus after 4 weeks of dosing with vehicle or Compound 1 followed by a high dose LPS to induced BBB breakdown. (Mixed effects analysis with repeated measures. (n=69, 57)). FIG. 66 reports the results of in vivo target engagement assays with Compound 1 in mouse plasma. Whole blood from mice dosed with Compound 1 for 4 weeks followed by high dose LPS was incubated with a calcium ionophore to stimulate LTB4 release. Plasma was generated and LTB4 levels were measured using ELISA. LTB4 is the product of LTA4H hydrolysis so this assay reports on LTA4H enzymatic activity. […] (Kruskal-Wallis test with Dunn's multiple comparisons with post-hoc Mann-Whitney test. ****p<0.0001 (n=8, 9, 8, 9)).
# [2] = test system: Male C57BL/6 mice aged 20-21 months; assay: Cortical brain lysate Cardiovascular Disease Panel (Luminex); format: in vivo, mouse; details: 10 mg/kg po one month
# Experimental: Male C57BL/6 mice aged 20-21 months were treated with Vehicle or 10 mg/kg Compound 1 LTA4H inhibitor po for one month. Mice were anesthetized and perfused with saline. Brain tissue was collected, and sub dissected into cortex and hippocampus. Cortex samples were lysed in RIPA buffer and the soluble supernatant fraction was sent to Eve Technologies for analysis on the Cardiovascular Disease Panel using Luminex technology.
# [3] = test system: aged C57BL/6 mice; assay: Long term potentiation (LTP) in hippocampal slices; format: in vivo, mouse; details: 1 month bid po, 1 mg/kg Compound 1 or 2.5 mg/kg SC57461A
# Experimental: Aged C57BL/6 mice (21 months of age) were treated for 1 month bid po with vehicle, 1 mg/kg Compound 1, or 2.5 mg/kg SC57461A (n=5 mice per treatment group). Electrophysical recordings were performed at AfaSci, Inc, as follows. Animals were deeply anesthetized with halothane and decapitated. The brain was quickly taken out and placed into ice-cold artificial cerebrospinal fluid (ACSF) that was continuously bubbled with 5% CO2/95% O2. The ACSF was composed of (in mM) NaCl 130.0, KCl 2.5, KH2PO4 1.2, CaCl2 2.4, MgSO4 1.3, NaHCO326.0 and glucose 10.0 (pH 7.4). Hippocampal slices (400 μm thick) were prepared using a tissue slicer (Stoelting Co., IL) and incubated at room temperature in continuously oxygenated ACSF for at least 1 h before being recorded with submerged mode in chamber (Harvard Apparatus) at room temperature. Data were collected with an Axopatch-2B amplifier and pClamp 10.4 program (Axon Instruments) through digidata 1320A.
# Field population spike (PS) was recorded using glass microelectrode filled with ACSF (resistance: 1-3 MO). Biphasic current pulses (0.2 ms duration for one phase, 0.4 ms in total) were delivered in 10 s intervals through a concentric bipolar stimulating electrode (FHC, Inc.). […] To record field population spikes in dorsal dentate gyrus, the stimulating electrode was placed on the hippocampal fissure to stimulate the bypassing perforant pathway fibers and the recording electrode was placed on inner part of granular cell layer. To record field EPSPs in DG, the stimulating electrode was placed on the hippocampal fissure to stimulate the bypassing perforant pathway fibers and the recording electrode was placed on inner part of granular cell layer. Slices were recorded within 8 hours after dissection. Titanic stimulation consisted of 2 trains of 100 pulses (0.4 ms bipolar pulse duration, 100 Hz) lasting for 1 second with 5 seconds of interval. The slope of EPSP and amplitude of population spike were measured from the initial phase of negative wave with Clampfit10.4. Each data point was measured with average of 3 consecutive traces. LTP was plotted as the percentage to baseline following high frequency stimulation (mean±SEM).
# [4] = test system: aged wild type (WT; C57BL/6) mice; assay: Iba-1 histology in hippocampus; format: in vivo, mouse; details: 4 weeks of dosing
# Experimental: Brains were collected following saline perfusion and separated by mid-sagittal slice with one-half drop fixed in freshly prepared 4% PFA. PFA was changed to 30% sucrose 24-48 hours later. A second change to 30% sucrose occurred 24 hours later. Brain tissue was sectioned or lysed and analyzed for GFAP, AQP4, or IBA1 by standard histological methods. Images were acquired using a confocal microscope or Axioscan slide scanner.
# (§1) Three independent cohorts of aged wild type (WT; C57BL/6) mice between twenty to twenty-two months of age (20-22 mo) were homogenized into two (2) groups by body weight, total distance travelled in the open field test, and average velocity in the open field test. Group 1 was administered vehicle control PO daily. Group 2 was administered 10 mg/kg of the LTA4H inhibitor Compound 1 PO daily. Both groups were dosed for either 10 days or 4 weeks daily. Behavioral assays were run during the last week of dosing and animals were sacrificed at the end of the study for histological and molecular assays.
# [5] = test system: synthesis of LTB4 in human whole blood; assay: human whole blood (HWB) assay, LTB4 production inhibition; format: cell-based; details: calcimycin 20 μM
# Experimental: The compounds of the invention are additionally tested in a human whole blood (HWB) assay to determine their ability to inhibit the synthesis of LTB4 in a cellular system. Compounds are combined with heparinized human whole blood and incubated for 15 minutes at 37° C. Calcimycin (20 μM final, prepared in phosphate-buffered saline, pH 7.4) is then added and the mixture is incubated for another 30 minutes at 37° C. The samples are centrifuged for 5 min at low speed (1500×g) and the plasma layer is removed. Plasma LTB4 concentrations are then measured using an antibody-based homogenous time-resolved fluorescence method (CisBio, Bedford, Mass.). In general, the preferred potency range (IC50) of compounds in the HWB assay is between 10 nM to 10 μM, the more preferred potency range is 10 nM to 1 μM, and the most preferred potency range is 10 nM to 100 nM.
# [6] = test system: aged C57BL6 mice; assay: Open Field; format: in vivo, mouse
# Experimental: The open field test was used to evaluate general locomotor activity and exploratory behavior in a novel environment. It consisted of a square arena (16 in ×16 in). Mice were brought to the experimental room for at least 30 min of acclimation to the experimental room conditions (dim lighting) prior to testing. Mice were placed in the center of the arena, recorded, and tracked within a predefined peripheral and center space using the photobeam activity system automated software (ANY-maze) for 15 min. Total distance traveled, average velocity, and time spent in the peripheral and center zones were analyzed.
# as §1
structure (smiles),measurement,setting,value
"O=C(O)C1CCN(Cc2ccc([C@H]3COc4ccccc4O3)cc2)CC1 [Example 1, 1-{4-[(2S)-2,3-dihydro-1,4-benzodioxin-2-yl]benzyl}piperidine-4-carboxylic acid]",LTB4 levels in calcimycin stimulated plasma,[1]; 4 weeks of dosing followed by LPS,trending reduction
same,AQP4 intensity across large descending vessels of CA1 hippocampus,[1]; 4 weeks of dosing then high dose LPS,trending reduction in AQP4 intensity
same,LTB4 levels in calcimycin stimulated plasma,"[1]; 4 weeks of dosing, without LPS",significant reduction in LTB4 levels
same,BBB leakiness (sodium fluorescein in brain),"[1]; aged mice, 4 weeks treatment then acute high dose LPS",trend towards reduced BBB leakiness
same,cortical MMP9 protein,[2],trending reduction in cortical MMP9 protein
same,cortical Pecam-1 protein,[2],trending reduction in cortical Pecam-1 protein
same,"LTP, CA1 region of the hippocampus",[3],increase in LTP
same,"LTP, DG region of the hippocampus",[3],increase in LTP
same,Iba-1 percent thresholded area in the hippocampus,[4],reduction in Iba-1 percent thresholded area
same,IC50,[5],179 nM
same,time spent in periphery (P) or center (C),[6]; 4 weeks of dosing,no difference between time spent in the periphery (P) or center (C)
same,total distance traveled in open field,[6]; 4 weeks of dosing,no change in total distance traveled
same,velocity in open field,[6]; 4 weeks of dosing,no change in velocity
same,time spent in periphery (P) or center (C),[6]; 10 days of dosing,no difference between time spent in the periphery (P) or center (C)
same,total distance traveled in open field,[6]; 10 days of dosing,no change in total distance traveled
same,velocity in open field,[6]; 10 days of dosing,no change in velocity
